# Active and inactive are the calls of the source. No cut-off for these calls is given here.
# Species on record: Homo sapiens
# Test: Selectivity ratio of Ki(app) for CDK7/Cyclin H (unknown origin) to Ki(app) for CDK9/Cyclin T1 (unknown origin)
# Details: not given
row,Structure (SMILES),Ratio Ki(app)
1,CNc1nc(C)c(-c2nc(Nc3cccc(C(=O)N4CCOCC4)c3)ncc2C#N)s1,43

# Target: Cyclin-dependent kinase 9 (Homo sapiens) (UniProt P50750)
# Test: Inhibition of CDK9 in human HCT116 cells assessed as decrease in RNAP2 CTD phosphorylation at Ser2 at 1 to 5 uM after 24 hrs by Western blot analysis
# Format: cell-based
# Details: HCT-116
# Chain of Cyclin-dependent kinase 9 (Homo sapiens) (P50750 whole entry): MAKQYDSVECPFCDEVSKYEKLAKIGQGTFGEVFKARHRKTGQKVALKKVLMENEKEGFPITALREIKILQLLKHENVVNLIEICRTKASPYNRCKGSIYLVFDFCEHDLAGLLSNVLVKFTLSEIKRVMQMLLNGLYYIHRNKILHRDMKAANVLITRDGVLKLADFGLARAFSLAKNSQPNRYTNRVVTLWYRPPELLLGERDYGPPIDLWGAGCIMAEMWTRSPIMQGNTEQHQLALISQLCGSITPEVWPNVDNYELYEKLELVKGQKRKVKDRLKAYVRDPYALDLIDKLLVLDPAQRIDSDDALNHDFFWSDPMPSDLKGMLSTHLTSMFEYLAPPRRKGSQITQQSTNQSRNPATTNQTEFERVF
row,Structure (SMILES),inhibition
1,CNc1nc(C)c(-c2nc(Nc3cccc(C(=O)NC4CCN(C)CC4)c3)ncc2C#N)s1,Active

# Target: Cyclin-dependent kinase 9 (Homo sapiens) (UniProt P50750)
# Test: Inhibition of CDK9 in human HCT116 cells assessed as decrease in RNAP2 CTD phosphorylation at Ser5 at 10 uM after 24 hrs by Western blot analysis
# Format: cell-based
# Details: HCT-116
row,Structure (SMILES),inhibition
1,CNc1nc(C)c(-c2nc(Nc3cccc(C(=O)NC4CCN(C)CC4)c3)ncc2C#N)s1,Active

# Target: Cyclin-dependent kinase 1/cyclin B1 (Homo sapiens, UniProt P06493)
# Sequence (P06493 whole entry): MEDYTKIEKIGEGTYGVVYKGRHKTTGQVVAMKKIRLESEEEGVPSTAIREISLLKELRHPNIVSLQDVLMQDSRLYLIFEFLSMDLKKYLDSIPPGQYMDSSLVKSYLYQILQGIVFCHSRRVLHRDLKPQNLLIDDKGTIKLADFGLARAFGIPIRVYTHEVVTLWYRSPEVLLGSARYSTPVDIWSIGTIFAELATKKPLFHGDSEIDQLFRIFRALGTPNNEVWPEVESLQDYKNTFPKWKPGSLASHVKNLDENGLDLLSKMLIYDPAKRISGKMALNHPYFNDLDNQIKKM
# Sequence (P14635 whole entry, further chain): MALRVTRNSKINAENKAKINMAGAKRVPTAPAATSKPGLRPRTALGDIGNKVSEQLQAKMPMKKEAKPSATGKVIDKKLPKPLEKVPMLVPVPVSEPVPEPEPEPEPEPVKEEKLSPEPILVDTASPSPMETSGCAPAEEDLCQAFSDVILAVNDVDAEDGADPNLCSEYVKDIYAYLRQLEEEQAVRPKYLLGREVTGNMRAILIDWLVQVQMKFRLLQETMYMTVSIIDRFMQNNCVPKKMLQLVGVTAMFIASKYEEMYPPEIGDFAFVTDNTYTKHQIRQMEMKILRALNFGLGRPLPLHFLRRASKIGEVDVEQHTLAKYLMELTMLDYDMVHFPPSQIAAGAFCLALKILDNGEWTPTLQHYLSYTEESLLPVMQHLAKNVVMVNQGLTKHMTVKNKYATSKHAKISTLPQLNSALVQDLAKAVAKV
# Test: Inhibition of CDK1/Cyclin B (unknown origin) by radiometric assay
# Format: protein-complex assay
# Details: read-out: Ki(app)
row,Structure (SMILES),Ki
1,CNc1nc(C)c(-c2nc(Nc3cccc(C(=O)NC4CCN(C)CC4)c3)ncc2F)s1,0.064 µM
2,CNc1nc(C)c(-c2nc(Nc3cccc(S(C)(=O)=O)c3)ncc2C#N)s1,0.019 µM
3,CNc1nc(C)c(-c2nc(Nc3cccc(C(=O)N4CCN(C(C)=O)CC4)c3)ncc2C#N)s1,0.166 µM
4,CNc1nc(C)c(-c2ccnc(Nc3cccc(C(=O)N4CCOCC4)c3)n2)s1,0.261 µM
5,CNc1nc(C)c(-c2nc(Nc3cccc(S(=O)(=O)N4CCOCC4)c3)ncc2C#N)s1,0.073 µM
6,CNc1nc(C)c(-c2nc(Nc3ccc(C(=O)NC4CCN(C)CC4)cc3)ncc2C#N)s1,0.043 µM
7,Cc1nc(N)sc1-c1nc(Nc2cccc(N3CCN(C)CC3)c2)ncc1F,0.065 µM
8,CNc1nc(C)c(-c2ccnc(Nc3ccc(C)c(S(=O)(=O)N4CCOCC4)c3)n2)s1,0.357 µM
9,CNc1nc(C)c(-c2nc(Nc3cccc(S(=O)(=O)N4CCN(C)CC4)c3)ncc2C#N)s1,0.576 µM
10,CC(=O)N1CCN(c2cccc(Nc3ncc(F)c(-c4sc(N)nc4C)n3)c2)CC1,0.041 µM
11,CNc1nc(C)c(-c2nc(Nc3cccc(S(=O)(=O)NCCOC)c3)ncc2C#N)s1,0.034 µM
12,CNc1nc(C)c(-c2nc(Nc3cccc(C(=O)N4CCOCC4)c3)ncc2C#N)s1,0.205 µM
13,CNc1nc(C)c(-c2nc(Nc3cccc(C(=O)NC4CCN(C)CC4)c3)ncc2C#N)s1,0.262 µM
14,CNc1nc(C)c(-c2nc(Nc3cc(C(=O)N4CCN(C)CC4)ccc3Cl)ncc2C#N)s1,> 5 µM
15,CNc1nc(C)c(-c2nc(Nc3cccc(S(=O)(=O)NCCOC)c3)ncc2F)s1,0.01 µM
16,CNc1nc(C)c(-c2nc(Nc3cccc(N4CCN(C)CC4)c3)ncc2F)s1,0.032 µM
17,CNc1nc(C)c(-c2nc(Nc3cccc(C(=O)N4CCN(C)CC4)c3)ncc2C#N)s1,0.313 µM
18,CNc1nc(C)c(-c2nc(Nc3ccc(C)c(S(=O)(=O)N4CCOCC4)c3)ncc2F)s1,0.101 µM

# Target: Cyclin-dependent kinase 9 (Homo sapiens) (UniProt P50750)
# Test: Inhibition of CDK9 in human HCT116 cells assessed as downregulation of Mcl-1 protein expression at 1 to 5 uM after 24 hrs by Western blot analysis
# Format: cell-based
# Details: HCT-116
row,Structure (SMILES),inhibition
1,CNc1nc(C)c(-c2nc(Nc3cccc(C(=O)NC4CCN(C)CC4)c3)ncc2C#N)s1,Active

# Target: CDK2/Cyclin A2 (Homo sapiens, UniProt P24941)
# Test: Inhibition of CDK2/Cyclin A (unknown origin) by radiometric assay
# Format: protein-complex assay
# Details: read-out: Ki(app)
row,Structure (SMILES),Ki
1,CNc1nc(C)c(-c2nc(Nc3cccc(C(=O)NC4CCN(C)CC4)c3)ncc2F)s1,0.231 µM
2,CNc1nc(C)c(-c2nc(Nc3cccc(S(C)(=O)=O)c3)ncc2C#N)s1,0.043 µM
3,CNc1nc(C)c(-c2nc(Nc3cccc(C(=O)N4CCN(C(C)=O)CC4)c3)ncc2C#N)s1,0.134 µM
4,CNc1nc(C)c(-c2ccnc(Nc3cccc(C(=O)N4CCOCC4)c3)n2)s1,0.485 µM
5,CNc1nc(C)c(-c2nc(Nc3cccc(S(=O)(=O)N4CCOCC4)c3)ncc2C#N)s1,0.055 µM
6,CNc1nc(C)c(-c2nc(Nc3ccc(C(=O)NC4CCN(C)CC4)cc3)ncc2C#N)s1,0.032 µM
7,Cc1nc(N)sc1-c1nc(Nc2cccc(N3CCN(C)CC3)c2)ncc1F,0.068 µM
8,CNc1nc(C)c(-c2ccnc(Nc3ccc(C)c(S(=O)(=O)N4CCOCC4)c3)n2)s1,0.294 µM
9,CNc1nc(C)c(-c2nc(Nc3cccc(S(=O)(=O)N4CCN(C)CC4)c3)ncc2C#N)s1,0.584 µM
10,CC(=O)N1CCN(c2cccc(Nc3ncc(F)c(-c4sc(N)nc4C)n3)c2)CC1,0.077 µM
11,CNc1nc(C)c(-c2nc(Nc3cccc(S(=O)(=O)NCCOC)c3)ncc2C#N)s1,0.022 µM
12,CNc1nc(C)c(-c2nc(Nc3cccc(C(=O)N4CCOCC4)c3)ncc2C#N)s1,0.199 µM
13,CNc1nc(C)c(-c2nc(Nc3cccc(C(=O)NC4CCN(C)CC4)c3)ncc2C#N)s1,0.316 µM
14,CNc1nc(C)c(-c2nc(Nc3cc(C(=O)N4CCN(C)CC4)ccc3Cl)ncc2C#N)s1,> 5 µM
15,CNc1nc(C)c(-c2nc(Nc3cccc(S(=O)(=O)NCCOC)c3)ncc2F)s1,0.006 µM
16,CNc1nc(C)c(-c2nc(Nc3cccc(N4CCN(C)CC4)c3)ncc2F)s1,0.041 µM
17,CNc1nc(C)c(-c2nc(Nc3cccc(C(=O)N4CCN(C)CC4)c3)ncc2C#N)s1,0.164 µM
18,CNc1nc(C)c(-c2nc(Nc3ccc(C)c(S(=O)(=O)N4CCOCC4)c3)ncc2F)s1,0.13 µM

# Target: Cyclin-dependent kinase 7/ cyclin H (Homo sapiens, UniProt P50613)
# Sequence (P51946 whole entry): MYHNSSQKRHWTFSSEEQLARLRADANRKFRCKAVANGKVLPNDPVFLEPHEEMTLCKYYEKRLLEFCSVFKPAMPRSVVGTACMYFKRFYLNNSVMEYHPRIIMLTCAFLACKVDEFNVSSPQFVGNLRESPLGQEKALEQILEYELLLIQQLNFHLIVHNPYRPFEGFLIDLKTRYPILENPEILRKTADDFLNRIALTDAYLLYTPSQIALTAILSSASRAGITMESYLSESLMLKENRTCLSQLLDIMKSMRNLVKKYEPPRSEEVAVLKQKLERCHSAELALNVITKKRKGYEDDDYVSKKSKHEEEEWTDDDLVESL
# Sequence (P50613 whole entry): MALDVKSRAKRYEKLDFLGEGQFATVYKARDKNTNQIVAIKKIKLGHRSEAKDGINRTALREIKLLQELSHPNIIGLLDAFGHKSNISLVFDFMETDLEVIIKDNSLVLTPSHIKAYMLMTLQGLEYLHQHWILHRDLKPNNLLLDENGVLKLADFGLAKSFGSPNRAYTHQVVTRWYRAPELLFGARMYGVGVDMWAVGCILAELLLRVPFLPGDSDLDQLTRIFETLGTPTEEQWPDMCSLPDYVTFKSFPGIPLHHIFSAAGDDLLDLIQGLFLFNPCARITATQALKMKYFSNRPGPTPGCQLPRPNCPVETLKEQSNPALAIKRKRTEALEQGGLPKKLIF
# Test: Inhibition of CDK7/Cyclin H (unknown origin) by radiometric assay
# Format: protein-complex assay
# Details: read-out: Ki(app)
row,Structure (SMILES),Ki
1,CNc1nc(C)c(-c2nc(Nc3cccc(C(=O)NC4CCN(C)CC4)c3)ncc2F)s1,0.542 µM
2,CNc1nc(C)c(-c2nc(Nc3cccc(S(C)(=O)=O)c3)ncc2C#N)s1,0.11 µM
3,CNc1nc(C)c(-c2nc(Nc3cccc(C(=O)N4CCN(C(C)=O)CC4)c3)ncc2C#N)s1,0.552 µM
4,CNc1nc(C)c(-c2ccnc(Nc3cccc(C(=O)N4CCOCC4)c3)n2)s1,0.393 µM
5,CNc1nc(C)c(-c2nc(Nc3cccc(S(=O)(=O)N4CCOCC4)c3)ncc2C#N)s1,0.893 µM
6,CNc1nc(C)c(-c2nc(Nc3ccc(C(=O)NC4CCN(C)CC4)cc3)ncc2C#N)s1,0.304 µM
7,Cc1nc(N)sc1-c1nc(Nc2cccc(N3CCN(C)CC3)c2)ncc1F,0.476 µM
8,CNc1nc(C)c(-c2ccnc(Nc3ccc(C)c(S(=O)(=O)N4CCOCC4)c3)n2)s1,0.15 µM
9,Cc1nc(N)sc1-c1nc(Nc2cccc(S(N)(=O)=O)c2)ncc1F,0.252 µM
10,CNc1nc(C)c(-c2nc(Nc3cccc(S(=O)(=O)N4CCN(C)CC4)c3)ncc2C#N)s1,0.024 µM
11,CC(=O)N1CCN(c2cccc(Nc3ncc(F)c(-c4sc(N)nc4C)n3)c2)CC1,1.46 µM
12,CNc1nc(C)c(-c2nc(Nc3cccc(S(=O)(=O)NCCOC)c3)ncc2C#N)s1,0.18 µM
13,CNc1nc(C)c(-c2nc(Nc3cccc(C(=O)N4CCOCC4)c3)ncc2C#N)s1,1.87 µM
14,CNc1nc(C)c(-c2nc(Nc3cccc(C(=O)NC4CCN(C)CC4)c3)ncc2C#N)s1,0.163 µM
15,CNc1nc(C)c(-c2nc(Nc3cc(C(=O)N4CCN(C)CC4)ccc3Cl)ncc2C#N)s1,> 5 µM
16,CNc1nc(C)c(-c2nc(Nc3cccc(S(=O)(=O)NCCOC)c3)ncc2F)s1,0.03 µM
17,CNc1nc(C)c(-c2nc(Nc3cccc(N4CCN(C)CC4)c3)ncc2F)s1,0.541 µM
18,CNc1nc(C)c(-c2nc(Nc3cccc(C(=O)N4CCN(C)CC4)c3)ncc2C#N)s1,0.84 µM
19,CNc1nc(C)c(-c2nc(Nc3ccc(C)c(S(=O)(=O)N4CCOCC4)c3)ncc2F)s1,0.133 µM

# System: MCF7
# Test: Growth inhibition of human MCF7 cells after 48 hrs by MTT assay
# Format: functional
# Details: MCF7, 48 h
row,Structure (SMILES),GI50
1,CNc1nc(C)c(-c2ccnc(Nc3cccc(C(=O)N4CCOCC4)c3)n2)s1,0.55 µM
2,CNc1nc(C)c(-c2ccnc(Nc3ccc(C)c(S(=O)(=O)N4CCOCC4)c3)n2)s1,1.61 µM
3,CNc1nc(C)c(-c2nc(Nc3cccc(C(=O)N4CCOCC4)c3)ncc2C#N)s1,0.82 µM
4,CNc1nc(C)c(-c2nc(Nc3cccc(C(=O)N4CCN(C)CC4)c3)ncc2C#N)s1,1.38 µM

# System: HCT-116
# Test: Growth inhibition of human HCT116 cells after 48 hrs by MTT assay
# Format: functional
# Details: HCT-116, 48 h
row,Structure (SMILES),GI50
1,CNc1nc(C)c(-c2ccnc(Nc3cccc(C(=O)N4CCOCC4)c3)n2)s1,0.52 µM
2,CNc1nc(C)c(-c2ccnc(Nc3ccc(C)c(S(=O)(=O)N4CCOCC4)c3)n2)s1,0.94 µM
3,CNc1nc(C)c(-c2nc(Nc3cccc(C(=O)N4CCOCC4)c3)ncc2C#N)s1,0.59 µM
4,CNc1nc(C)c(-c2nc(Nc3cccc(C(=O)N4CCN(C)CC4)c3)ncc2C#N)s1,0.72 µM

# Target: CDK9/cyclin T1 (Homo sapiens, UniProt P50750)
# Sequence (O60563 whole entry): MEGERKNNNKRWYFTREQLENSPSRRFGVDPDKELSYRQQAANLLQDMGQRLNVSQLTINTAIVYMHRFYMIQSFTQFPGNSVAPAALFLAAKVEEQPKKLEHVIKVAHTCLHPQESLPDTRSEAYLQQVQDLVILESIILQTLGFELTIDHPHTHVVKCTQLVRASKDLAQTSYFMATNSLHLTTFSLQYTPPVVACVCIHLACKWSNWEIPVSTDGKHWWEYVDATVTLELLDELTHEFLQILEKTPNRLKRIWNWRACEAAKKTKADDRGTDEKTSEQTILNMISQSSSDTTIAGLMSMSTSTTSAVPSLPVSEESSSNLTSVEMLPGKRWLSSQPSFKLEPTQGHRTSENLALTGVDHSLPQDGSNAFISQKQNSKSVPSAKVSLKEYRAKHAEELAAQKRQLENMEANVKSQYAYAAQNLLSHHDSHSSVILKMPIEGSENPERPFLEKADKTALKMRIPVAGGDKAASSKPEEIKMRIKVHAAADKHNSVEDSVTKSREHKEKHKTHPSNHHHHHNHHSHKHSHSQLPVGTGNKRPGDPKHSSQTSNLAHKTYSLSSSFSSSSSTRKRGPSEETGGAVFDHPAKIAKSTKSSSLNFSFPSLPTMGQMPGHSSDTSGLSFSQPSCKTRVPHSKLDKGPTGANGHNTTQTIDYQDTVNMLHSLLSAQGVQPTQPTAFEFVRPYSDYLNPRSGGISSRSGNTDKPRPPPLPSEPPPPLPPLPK
# Sequence (P50750 whole entry): as the sequence (P50750 whole entry) above
# Test: Inhibition of CDK9/Cyclin T1 (unknown origin) by radiometric assay
# Format: protein-complex assay
# Details: read-out: Ki(app)
row,Structure (SMILES),Ki
1,CNc1nc(C)c(-c2nc(Nc3cccc(C(=O)NC4CCN(C)CC4)c3)ncc2F)s1,0.036 µM
2,CNc1nc(C)c(-c2nc(Nc3cccc(S(C)(=O)=O)c3)ncc2C#N)s1,0.005 µM
3,CNc1nc(C)c(-c2nc(Nc3cccc(C(=O)N4CCN(C(C)=O)CC4)c3)ncc2C#N)s1,0.017 µM
4,CNc1nc(C)c(-c2ccnc(Nc3cccc(C(=O)N4CCOCC4)c3)n2)s1,0.095 µM
5,CNc1nc(C)c(-c2nc(Nc3cccc(S(=O)(=O)N4CCOCC4)c3)ncc2C#N)s1,0.014 µM
6,CNc1nc(C)c(-c2nc(Nc3ccc(C(=O)NC4CCN(C)CC4)cc3)ncc2C#N)s1,0.008 µM
7,Cc1nc(N)sc1-c1nc(Nc2cccc(N3CCN(C)CC3)c2)ncc1F,0.011 µM
8,CNc1nc(C)c(-c2ccnc(Nc3ccc(C)c(S(=O)(=O)N4CCOCC4)c3)n2)s1,0.027 µM
9,CNc1nc(C)c(-c2nc(Nc3cccc(S(=O)(=O)N4CCN(C)CC4)c3)ncc2C#N)s1,0.035 µM
10,CC(=O)N1CCN(c2cccc(Nc3ncc(F)c(-c4sc(N)nc4C)n3)c2)CC1,0.011 µM
11,CNc1nc(C)c(-c2nc(Nc3cccc(S(=O)(=O)NCCOC)c3)ncc2C#N)s1,0.016 µM
12,CNc1nc(C)c(-c2nc(Nc3cccc(C(=O)NC4CCN(C)CC4)c3)ncc2C#N)s1,0.014 µM
13,CNc1nc(C)c(-c2nc(Nc3cc(C(=O)N4CCN(C)CC4)ccc3Cl)ncc2C#N)s1,0.715 µM
14,CNc1nc(C)c(-c2nc(Nc3cccc(S(=O)(=O)NCCOC)c3)ncc2F)s1,0.003 µM
15,CNc1nc(C)c(-c2nc(Nc3cccc(N4CCN(C)CC4)c3)ncc2F)s1,0.007 µM
16,CNc1nc(C)c(-c2nc(Nc3cccc(C(=O)N4CCN(C)CC4)c3)ncc2C#N)s1,0.019 µM
17,CNc1nc(C)c(-c2nc(Nc3ccc(C)c(S(=O)(=O)N4CCOCC4)c3)ncc2F)s1,0.011 µM
